Experiment [1] relates to wound on the dorsal skin of non-diabetic C57 mice. The experiment in a line: Wound healing (1 cm^2 punch biopsy wound) in non-diabetic C57BL/6j mice, topical cream. Type of experiment: in vivo. The conditions noted are these: topical once daily for 12 days; for Wound healing observed animals in a group: 5 animals in the group. The text has this:
Method: In this study, C57BL/6j mice strain (age: 12 weeks) were used for studying the wound healing process. A 1 cm^2 wound was made using a punch biopsy on the dorsal side of the C57 mice. The animals were divided into 5 groups consisting of 5 animals in each group as follows: • Group 6 (n=5): treated with vehicle alone (Non-Diabetic Control Group). • Group 7 (n=5) treated with Compound 2 (2.5%) prepared in the vehicle. • Group 8 (n=5): treated with Compound 1 (0.625%) prepared in the vehicle. • Group 9 (n=5) treated with Compound 1 (1.25%) prepared in the vehicle. • Group 10 (n=5) treated with Compound 1 (2.5%) prepared in the vehicle. Three concentrations of Compound 1, i.e. 0.625%, 1.25%, and 2.5%, prepared in the vehicle were tested in this study. The topical preparations were applied on the wound once daily for 12 days starting 12 hours after the wound was created. Images of the wound area were visualized, and measurements of area were recorded on each day of the study.

For experiment [2], the system named is IMQ-induced psoriasis in Balb/c mice. Description: Histopathology (H&E staining) of skin, IMQ-induced psoriasis model. Type of experiment: in vivo. The conditions noted are these: 0.625% preparation; comparable to clobetasol propionate cream. The protocol: As a part of the efficacy study, a histopathology study was performed to study the morphological observations of the skin of mice representative of the different treatment groups. At the end of experiment, skin samples of mice from each group were fixed in 4% paraformaldehyde and embedded in paraffin. From each paraffin block, 4 μm thick sections were made and mounted on the glass slides. The sections were stained by haematoxylin and eosin and images were taken and evaluated.

Experiment [3] deals with wound on the dorsal skin of diabetic (db/db) mice. The experiment in a line: Diabetic wound healing (1 cm^2 punch biopsy wound) in db/db mice, topical cream. Type of experiment: in vivo. The conditions noted are these: for Wound healing observed animals in a group on day 10 / % of Wound healing: topical once daily; for Wound healing observed animals in a group on day 10: 5 animals in the group; for % of Wound healing: day 10. The text has this:
Method: In this study, mice of db/db strain (age: 13-14 weeks) were used as this strain is more analogous to diabetic wound healing in humans. A 1 cm^2 wound was made using a punch biopsy on the dorsal side of the db/db mice under local anesthetic conditions. The animals were divided into 5 groups with 5 animals in each group as follows: • Group 1 (n=5): treated with vehicle alone (Diabetic Control Group). • Group 2 (n=5) treated with Compound 2 (2.5%) prepared in the vehicle. • Group 3 (n=5): treated with Compound 1 (0.625%) prepared in the vehicle. • Group 4 (n=5) treated with Compound 1 (1.25%) prepared in the vehicle. • Group 5 (n=5) treated with Compound 1 (2.5%) prepared in the vehicle. Three concentrations of Compound 1, i.e. 0.625%, 1.25%, and 2.5%, were tested for this study. The topical preparations were applied on the wound once daily for 12 days. Images of the wound area were visualized, and measurements of the wound area were recorded on each day of the study.

Experiment [4] concerns surgical incision wound on rabbit skin. Description: Incisional wound healing in rabbit, topical cream. Type of experiment: in vivo, New Zealand rabbits. The conditions noted are these: 2.5% in vehicle. The text has this: In this study, New Zealand rabbits weighing between 2.0-2.5 kg body weight were used and divided into two groups;
Control Group: Treated with the vehicle alone.
Test Group: Treated with Compound 1 (2.5%) prepared in the vehicle.
Para vertebral straight incisions of 2 cm length each were made through the entire thickness of the skin on either side of the vertebral column with the help of a sharp scalpel. After complete haemostasis, the wound was closed by means of interrupted sutures placed at equidistance points about 1 cm apart (See FIG. 6). Animals were treated once daily from day 0 to day 14 post-wounding day. Images were taken daily during the study period. Sutures were removed on day 7 and observed for wound closure.

The subject of experiment [5] is IMQ-induced psoriasis in Balb/c mice. Description: IMQ-induced psoriasis in Balb/c mice, PASI scoring. Type of experiment: in vivo. The conditions noted are these: topical 12 h after IMQ, day 1 to 6. The procedure: (§1) The effect of topical administration of Compound 1 for the treatment of psoriasis was tested in this animal study. In this study, typical features of psoriasis, namely erythema, scaling, and skin thickness, were induced by the application of 5% w/w imiquimod (IMQ) cream on the dorsal skin of Balb/c mice over a period of 6 consecutive days. Animals that developed psoriasis-like symptoms were used for studying the efficacy of the Compound 1 prepared in a vehicle (as described above). In this study, male Balb/c mice (aged 6 to 8 weeks) were used. The animals were divided into 8 groups consisting of 10 animals in each group as follows:
Animals in this group were topically treated with 62.5 mg of commercially available imiquimod cream (5%) on the shaved back for 6 consecutive days (day 1 to 6 of study) at a specific time in the morning. This negative control group represents the typical psoriatic model induced by imiquimod 5% (IMQ). […]
Psoriatic area and severity index (PASI) scoring was analyzed to determine the efficacy of compositions containing a Compound 1 with appropriate controls as part of the study. The severity of inflammation of the skin was evaluated by an objective scoring system based on the clinical PASI scores. Erythema (0-4) and scaling (0-4) were scored independently where, 0-none; 1-slight; 2-moderate; 3-marked; 4-very marked. […]

Experiment [6] concerns surgical incisional wound in diabetic (db/db) mice. The experiment in a line: Incisional wound healing in diabetic (db/db) mice, with or without SIRT1 inhibitor EX-527. Type of experiment: in vivo. The conditions noted are these: Group 12, 0.625% in vehicle, topical once daily for 7 days. The text has this: In this study, mice of db/db strain (age: 12 weeks) were used. The animals were divided into four groups: • Group 11: Mice control treated with the vehicle alone. • Group 12 Mice treated with Compound 1 (0.625%) prepared in the vehicle. • Group 13 Mice treated with Compound 1 (0.625%) and EX-527 (0.025%) in the • vehicle. • Group 14: Mice treated with EX-527 (0.025%) in the vehicle.
Para vertebral straight incisions of 2 cm length and 1 mm depth each were made through the entire thickness of the skin, on either side of the vertebral column with the help of a sharp scalpel. After complete haemostasis, the wound was closed by means of interrupted sutures placed at equidistance points about 1 cm apart (See FIG. 8) All the groups were treated once daily for 7 days with the respective test and control preparations. Images of the wound area were taken on each day of the study by photographs and Doppler imaging. The wound area was measured using a transparent tracing sheet before and during the treatment to measure the wound closure at every 4 day interval.

Experiment [7] has as its system mice skin tissues. Description: Tensile strength of skin tissues on day 8 after treatment for 7 days. Type of experiment: in vivo. The procedure: Method: Fresh mice skin was treated once daily and stretched between the two ends of the tensile machine with a load of 100 kg with a stretching speed of 5 mm/min. (FIG. 9).
The test system of experiment [8] is IL-23. The experiment in a line: IL-23 level in skin homogenate by ELISA, IMQ-induced psoriasis model. The conditions noted are these: day 7, ELISA. Type of experiment: in vivo, Balb/c mice. The procedure: as §1
An IMQ-induced psoriasis model reproduces biochemical and histopathological parameters characteristic of human psoriatic lesions. Topical application of the IMQ cream increased levels of cytokines including IL-23 and IL-17 in the treated skin tissues. The animals were euthanized on day 7. Spleen, liver and skin tissues were collected from all the animals Spleen and liver tissues were weighed. IL-17 and IL-23 levels were measured by ELISA using a commercially available kit. The skin homogenates obtained from mice of different groups were analyzed using ELISA for quantification of IL-17 and IL-23 levels as the selected interleukins are the typical inflammatory markers of psoriasis.
For orientation: ELISA stands for enzyme-linked immunosorbent assay.

Experiment [9] concerns hepatic enzyme markers ALT and AST. The conditions noted are these: intraperitoneally prior to treatment with t-butyl hydroperoxide; cited from earlier work.

Regarding `O=c1cc(CCCCCCCC[P+](c2ccccc2)(c2ccccc2)c2ccccc2)c2cc(O)c(O)cc2o1.[Br-]` [Compound 1], the “% of Wound healing” value came to 90% in experiment [1] (0.625% in vehicle cream); 90% in [1] (1.25% in vehicle cream); 100% in [1] (2.5% in vehicle cream); 100% in experiment [3] (0.625% in vehicle cream); 90% in experiment [3] (1.25% in vehicle cream); 90% in experiment [3] (2.5% in vehicle cream). Besides, the “Wound healing observed animals in a group” value in experiment [1] (0.625% in vehicle cream) is 4; in experiment [1] (1.25% in vehicle cream) it was 4; in [1] (2.5% in vehicle cream) it was 5. In addition, in experiment [2], the “Histopathological amelioration of IMQ-induced psoriasis (skin and ear)” value was “ameliorated more”. For the same molecule, the “Wound healing observed animals in a group on day 10” value in [3] (0.625% in vehicle cream) is listed as 5; in [3] (1.25% in vehicle cream), 4; in [3] (2.5% in vehicle cream), 4. The “Day of complete closure of the wound” value in [3] (Groups 3-5, 0.625%, 1.25% and 2.5% in vehicle, topical) was at most 10 days. The “Time of faster surgical wound healing versus Control Group” value in [4] (topical once daily day 0 to day 14) was at most 8 days. Also, the Surgical scar entry in experiment [4] (topical once daily, compared to Control Group) is “No surgical scar was observed”. The “PASI scores over the treatment period” value is listed as “declines in PASI scores” in experiment [5] (0.313% in vehicle) and “better declines in PASI scores” in experiment [5] (0.625% in vehicle). Further, the “Time to complete healing of the incisional wound” value in [6] is on record as at most 7 days. Also, the “Tensile strength (N)” value in experiment [7] (0.625%) amounted to 55.33 ± 1.7 N. For the same molecule, the “IL-23 levels in skin tissue compared to the negative control” value in [8] (0.313% in vehicle) and in experiment [8] (0.625% in vehicle) was “decline in IL-23 levels” each time.

Consider `NC(=O)C1CCCc2c1[nH]c1ccc(Cl)cc21` (centres unmarked) [EX527, 6-chloro-2,3,4,9-tetrahydro-1H-carbazole-1-carboxamide, reference compound], for which, in experiment [7] (0.025%), the “Tensile strength (N)” value is on record as 6.03 ± 2.51 N.

For `O=c1ccc2cc(O)c(O)cc2o1` [Compound 2, 6,7-dihydroxycoumarin, reference compound], in experiment [1] (2.5% in vehicle cream), the “% of Wound healing” value amounted to 90% and the “Wound healing observed animals in a group” value is 4. Further, the “Serum levels of hepatic enzyme markers ALT and AST” value in experiment [9] is given as “lower serum levels”. In addition, in [3] (2.5% in vehicle cream), the “Wound healing observed animals in a group on day 10” value is 0 and the “% of Wound healing” value amounted to 0%. Moreover, in [3] (Group 2, 2.5% in vehicle, topical), the “Day of wound closure” value is at most 26 days.
